The structures appear in SMILES notation.

For assay [1], the system named is P. falciparum male gametocytes. Description: P. falciparum Dual Gamete Formation Assay (PfDGFA), male readout (exflagellation). The note with it: for Average inhibition male (%): average of replicates; for % inhibition male (individual replicates) R1: replicate R1; for % inhibition male (individual replicates) R3: replicate R3; for % inhibition male (individual replicates) R4: replicate R4; for Activity: hit = >50% inhibition in male or female readout in at least 3 replicates, 0 = no class assigned. Format: cell-based, Plasmodium falciparum NF54. In outline: (§1)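 Day-14 NF54 gametocytes were incubated with compound for 24 h at 37°C under 1% O2/3% CO2/96% N2. Gametogenesis was triggered with ookinete medium (0.1 μM xanthurenic acid) plus Cy3-anti-Pfs25, and exflagellation was imaged by brightfield after cooling to 4°C then 28°C. Females were imaged by Pfs25 fluorescence 24 h later at 28°C.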

Assay [2] relates to P. falciparum female gametocytes. Description: P. falciparum Dual Gamete Formation Assay (PfDGFA), female readout (Pfs25-positive female gametes). The settings on record: for Average inhibition female (%): average of replicates; for % inhibition female (individual replicates) R1: replicate R1; for % inhibition female (individual replicates) R3: replicate R3; for % inhibition female (individual replicates) R4: replicate R4. It counts as cell-based, Plasmodium falciparum NF54. In outline: as §1

The mark [3] stands for this setting: PfDGFA at 2µM, 24h preincubation with gametocytes.
[4] abbreviates: number of replicates with >50% inhibition in the male readout, 2µM.
Setting [5] is: number of replicates with >50% inhibition in the female readout, 2µM.
[6] abbreviates: 2µM, 24h preincubation with gametocytes prior to induction of gametogenesis.
Setting [7] is: 2µM, 24h preincubation, hits selected on >50% inhibition in the male readout across replicates.
Setting [8] is: PfDGFA at 2µM, 24h preincubation.
[9] abbreviates: 2µM, 24h preincubation, hits selected on >50% inhibition in the female readout across replicates.
The mark [10] stands for this setting: PfDGFA at 2µM, 24h preincubation with gametocytes prior to induction of gametogenesis.
Setting [11] is: 2µM, 24h preincubation, number of replicates with >50% inhibition in the male readout.
The mark [12] stands for this setting: 2µM, 24h preincubation, number of replicates with >50% inhibition in the female readout.
The mark [13] stands for this setting: 2µM, 24h preincubation with gametocytes.

`CCOc1ccc2ccccc2c1CNCCCCCCNCc1c(OCC)ccc2ccccc12.CS(=O)(=O)O` [TCMDC-137791]: in assay [1] (setting [3]), the “Average inhibition male (%)” value worked out at 87.1%, the “% inhibition male (individual replicates) R1” value was 89.3%, the “% inhibition male (individual replicates) R3” value is listed as 68.9% and the “% inhibition male (individual replicates) R4” value is on record as 93.6%. Also, the HitlevelM in assay [1] (setting [4]) is recorded as 4. In assay [2] (setting [3]), the “Average inhibition female (%)” value was found to be 47.4%, the “% inhibition female (individual replicates) R1” value is reported as 37.1%, the “% inhibition female (individual replicates) R3” value turned out to be 17.2% and the “% inhibition female (individual replicates) R4” value amounted to 66.6%. In assay [2] (setting [5]), this molecule displayed a HitlevelF of 2.
With `c1cc(Cc2ccc(Nc3c4ccccc4nc4ccccc34)cc2)cc(Nc2c3ccccc3nc3ccccc23)c1` [TCMDC-137793], in assay [1] (setting [6]), the “Average inhibition male (%)” value amounted to 2.5%, the “% inhibition male (individual replicates) R1” value was 17.2%, the “% inhibition male (individual replicates) R3” value was -11.5% and the “% inhibition male (individual replicates) R4” value is recorded as -9.8%. Also, the HitlevelM in assay [1] (setting [7]) is given as 0. In assay [1] (setting [8]), this molecule displayed an Activity of 0. In addition, in assay [2] (setting [6]), the “Average inhibition female (%)” value worked out at 14.4%, the “% inhibition female (individual replicates) R1” value is listed as 13.9%, the “% inhibition female (individual replicates) R3” value came out at 7.5% and the “% inhibition female (individual replicates) R4” value stood at 13.1%. For the same molecule, the HitlevelF in assay [2] (setting [9]) came out at 0.
On to `COc1cc2ccccc2c(CNCCCCCCNCc2c(OC)c(OC)cc3ccccc23)c1OC.CS(=O)(=O)O` [TCMDC-137795], for which, in assay [1] (setting [3]), the “Average inhibition male (%)” value was determined as 66.8%, the “% inhibition male (individual replicates) R1” value was found to be 59.0%, the “% inhibition male (individual replicates) R3” value came out at 36.7% and the “% inhibition male (individual replicates) R4” value is given as 86.9%. In assay [1] (setting [4]), this molecule came in with a HitlevelM of 3. Moreover, in assay [2] (setting [3]), the “Average inhibition female (%)” value came out at 31.5%, the “% inhibition female (individual replicates) R1” value was found to be 34.0%, the “% inhibition female (individual replicates) R3” value was 23.0% and the “% inhibition female (individual replicates) R4” value came out at 18.6%. The HitlevelF in assay [2] (setting [5]) is 1.
`Br.c1cc(C2=NC3CCCCC3N2)ccc1OCCCCCOc1ccc(C2=NC3CCCCC3N2)cc1` (centres unmarked) [TCMDC-137802]: in assay [1] (setting [10]), the “% inhibition male (individual replicates) R1” value is 3.7%, the “% inhibition male (individual replicates) R3” value is reported as 3.4% and the “% inhibition male (individual replicates) R4” value is given as -3.8%. The “Average inhibition male (%)” value in assay [1] (setting [8]) was -1.7%. In assay [2] (setting [10]), the “% inhibition female (individual replicates) R1” value was 13.0%, the “% inhibition female (individual replicates) R3” value is given as -14.3% and the “% inhibition female (individual replicates) R4” value is recorded as -0.44%. For the same molecule, in assay [2] (setting [8]), the “Average inhibition female (%)” value is reported as 3.6%.
`Nc1nc(N)c2c(ccc3c2ccn3Cc2cccc(F)c2)n1` [TCMDC-137810]: in assay [1] (setting [6]), the “Average inhibition male (%)” value is recorded as 57.9%, the “% inhibition male (individual replicates) R1” value was 71.9%, the “% inhibition male (individual replicates) R3” value stood at 59.3% and the “% inhibition male (individual replicates) R4” value is reported as 64.6%. The molecule also showed a HitlevelM in assay [1] (setting [11]) of 3. In assay [2] (setting [6]), the “Average inhibition female (%)” value is 73.3%, the “% inhibition female (individual replicates) R1” value is reported as 69.9%, the “% inhibition female (individual replicates) R3” value came out at 85.4% and the “% inhibition female (individual replicates) R4” value is recorded as 66.6%. The HitlevelF in assay [2] (setting [12]) is 4.
As for `COc1cccc(Cn2ccc3c4c(N)nc(N)nc4ccc32)c1` [TCMDC-137811], in assay [1] (setting [6]), the “Average inhibition male (%)” value is 42.3%, the “% inhibition male (individual replicates) R1” value was found to be 37.2%, the “% inhibition male (individual replicates) R3” value is 47.4% and the “% inhibition male (individual replicates) R4” value came to 43.4%. Also, in assay [1] (setting [11]), the HitlevelM stood at 0. Moreover, in assay [2] (setting [6]), the “Average inhibition female (%)” value is listed as 75.4%, the “% inhibition female (individual replicates) R1” value came to 72.3%, the “% inhibition female (individual replicates) R3” value is listed as 74.8% and the “% inhibition female (individual replicates) R4” value stood at 79.8%. The same molecule displayed a HitlevelF in assay [2] (setting [12]) of 4.
On to `CS(=O)(=O)O.FC(F)(F)COc1ccc2ccccc2c1CNCCCCCCNCc1c(OCC(F)(F)F)ccc2ccccc12` [TCMDC-137816], for which, in assay [1] (setting [13]), the “Average inhibition male (%)” value stood at 91.3%, the “% inhibition male (individual replicates) R1” value is 97.0%, the “% inhibition male (individual replicates) R3” value turned out to be 82.6% and the “% inhibition male (individual replicates) R4” value turned out to be 90.9%. Moreover, in assay [2] (setting [13]), the “Average inhibition female (%)” value was determined as 42.8%, the “% inhibition female (individual replicates) R1” value was found to be 37.4%, the “% inhibition female (individual replicates) R3” value was determined as 26.9% and the “% inhibition female (individual replicates) R4” value turned out to be 39.6%.
For the molecule `N#Cc1ccc(Cn2ccc3c4c(N)nc(N)nc4ccc32)cc1` [TCMDC-137820], in assay [1] (setting [6]), the “Average inhibition male (%)” value is listed as 57.5%, the “% inhibition male (individual replicates) R1” value amounted to 46.1%, the “% inhibition male (individual replicates) R3” value was determined as 51.2% and the “% inhibition male (individual replicates) R4” value is listed as 67.4%. The same molecule returned a HitlevelM in assay [1] (setting [11]) of 3. Also, in assay [2] (setting [6]), the “Average inhibition female (%)” value is given as 75.9%, the “% inhibition female (individual replicates) R1” value was determined as 77.9%, the “% inhibition female (individual replicates) R3” value is listed as 77.4% and the “% inhibition female (individual replicates) R4” value is 70.8%. In addition, the HitlevelF in assay [2] (setting [12]) is listed as 4.
Regarding `COc1cc(CNCCCCCCNCc2cc(OC)cc3ccccc23)c2ccccc2c1.CS(=O)(=O)O` [TCMDC-137823], in assay [1] (setting [6]), the “Average inhibition male (%)” value is recorded as 27.1%, the “% inhibition male (individual replicates) R1” value is 24.9%, the “% inhibition male (individual replicates) R3” value is on record as 12.3% and the “% inhibition male (individual replicates) R4” value stood at 38.9%. The HitlevelM in assay [1] (setting [7]) was 0. In assay [1] (setting [8]), the Activity came to 0. Further, in assay [2] (setting [6]), the “Average inhibition female (%)” value is 15.2%, the “% inhibition female (individual replicates) R1” value was 16.9%, the “% inhibition female (individual replicates) R3” value worked out at 3.5% and the “% inhibition female (individual replicates) R4” value stood at 20.5%. The molecule also showed a HitlevelF in assay [2] (setting [9]) of 0.
Consider `CCCCOc1cc(CNCCCCCCNCc2cc(OCCCC)cc3ccccc23)c2ccccc2c1.CS(=O)(=O)O` [TCMDC-137824], for which, in assay [1] (setting [6]), the “Average inhibition male (%)” value was found to be 32.5%, the “% inhibition male (individual replicates) R1” value was determined as 29.7%, the “% inhibition male (individual replicates) R3” value is given as -0.8% and the “% inhibition male (individual replicates) R4” value is given as 46.2%. Also, in assay [1] (setting [11]), the HitlevelM amounted to 1. In assay [2] (setting [6]), the “Average inhibition female (%)” value was 23.5%, the “% inhibition female (individual replicates) R1” value is reported as 22.5%, the “% inhibition female (individual replicates) R3” value is on record as 5.4% and the “% inhibition female (individual replicates) R4” value is given as 30.9%. The molecule also had a HitlevelF in assay [2] (setting [12]) of 0.
On to `COc1c(OC)c(OC)c2ccccc2c1CNCCCCCCNCc1c(OC)c(OC)c(OC)c2ccccc12.Cl` [TCMDC-137827], for which, in assay [1] (setting [3]), the “Average inhibition male (%)” value came out at 67.6%, the “% inhibition male (individual replicates) R1” value is on record as 64.0% and the “% inhibition male (individual replicates) R4” value is 54.3%. In addition, in assay [1] (setting [4]), the HitlevelM is 3. Moreover, in assay [2] (setting [3]), the “Average inhibition female (%)” value is reported as 37.0%, the “% inhibition female (individual replicates) R1” value is reported as 45.3%, the “% inhibition female (individual replicates) R3” value is 25.5% and the “% inhibition female (individual replicates) R4” value is on record as 33.3%. This molecule also had a HitlevelF in assay [2] (setting [5]) of 0.
With `CCN(C)C(=O)n1ncc2c3c(N)nc(N)nc3ccc21` [TCMDC-137828], in assay [1] (setting [10]), the “% inhibition male (individual replicates) R1” value is given as 33.9%, the “% inhibition male (individual replicates) R3” value was 38.2% and the “% inhibition male (individual replicates) R4” value is given as 21.2%. Moreover, in assay [1] (setting [8]), the “Average inhibition male (%)” value amounted to 34.9%. Further, in assay [2] (setting [10]), the “% inhibition female (individual replicates) R1” value came out at 0.36%, the “% inhibition female (individual replicates) R3” value is -2.4% and the “% inhibition female (individual replicates) R4” value was 3.1%. Besides, the “Average inhibition female (%)” value in assay [2] (setting [8]) is given as -0.8%.
Consider `COc1c(CNCCCCCCNCc2c(OC)c(OC)c3ccccc3c2OC)c(OC)c2ccccc2c1OC.CS(=O)(=O)O` [TCMDC-137837], for which, in assay [1] (setting [6]), the “Average inhibition male (%)” value stood at 26.0%, the “% inhibition male (individual replicates) R1” value was 25.5%, the “% inhibition male (individual replicates) R3” value stood at 24.6% and the “% inhibition male (individual replicates) R4” value was found to be 53.4%. Further, the HitlevelM in assay [1] (setting [7]) is reported as 1. The molecule further displayed an Activity in assay [1] (setting [8]) of 0. In addition, in assay [2] (setting [6]), the “Average inhibition female (%)” value stood at 13.6%, the “% inhibition female (individual replicates) R1” value came out at 13.3%, the “% inhibition female (individual replicates) R3” value is recorded as 14.5% and the “% inhibition female (individual replicates) R4” value was 16.6%. The molecule also showed a HitlevelF in assay [2] (setting [9]) of 0.
As for `C#CCOc1ccc2ccccc2c1CNCCCCCCNCc1c(OCC#C)ccc2ccccc12.CS(=O)(=O)O` [TCMDC-137838], in assay [1] (setting [13]), the “Average inhibition male (%)” value is given as 97.5%, the “% inhibition male (individual replicates) R1” value was 98.4%, the “% inhibition male (individual replicates) R3” value worked out at 92.7% and the “% inhibition male (individual replicates) R4” value is 100.9%. Also, in assay [2] (setting [13]), the “Average inhibition female (%)” value was determined as 57.5%, the “% inhibition female (individual replicates) R1” value amounted to 37.7%, the “% inhibition female (individual replicates) R3” value stood at 36.7% and the “% inhibition female (individual replicates) R4” value was 72.5%.

The values are drawn from publication PMC10584170, “Machine learning-based phenotypic imaging to characterise the targetable biology of Plasmodium falciparum male gametocytes for the development of transmission-blocking antimalarials” (PLOS Pathogens, 2023).
